Test results as given in patent US20100041760A1, “MONOARYL AMINOTETRALINES” (priority 2008, published 2010).
pIC50: −log10 of the molar value.

Key:
[1] = molecular target: T1, thromboxane A2 receptor (TP) (Homo sapiens, UniProt P21731); assay: Human Thromboxane A2 Receptor Binding Assay; conditions: human platelets; 10 nM [3H]SQ29548; 1 hour, room temperature
T1 construct: using human platelets as the source of the receptor; from tissue; host or cells: human platelets (whole platelets, 5x10^7 per well)
T1 sequence (P21731 1-343): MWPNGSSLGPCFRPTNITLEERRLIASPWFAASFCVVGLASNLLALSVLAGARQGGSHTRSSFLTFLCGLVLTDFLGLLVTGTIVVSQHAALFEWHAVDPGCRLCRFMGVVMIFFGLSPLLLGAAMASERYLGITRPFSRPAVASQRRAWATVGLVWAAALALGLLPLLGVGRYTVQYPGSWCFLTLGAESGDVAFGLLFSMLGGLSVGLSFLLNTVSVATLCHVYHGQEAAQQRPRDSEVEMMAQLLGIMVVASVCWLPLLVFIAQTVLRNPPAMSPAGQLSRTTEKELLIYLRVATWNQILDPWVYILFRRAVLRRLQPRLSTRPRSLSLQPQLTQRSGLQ
Excerpt: The thromboxane A2 receptor (TP) plays a key role in hemostasis as its abnormality leads to bleeding disorders. To avoid the potential liability of bleeding disorders, the binding activity of certain compounds of the present invention against TP was monitored by a receptor binding assay using human platelets as the source of the receptor and [^3H]SQ29548 (generically named (5Z)-[5,6-^3H]-7-[(1S,2R,3R,4R)-3-[[2-[(phenylamino)carbonyl]hydrazinyl]methyl]-7-oxabicyclo[2.2.1]hept-2-yl]-5-heptenoic acid, from PerkinElmer Inc.) as the competing radioactive ligand.
The TP binding reactions (0.2 mL) were performed in 96-well plates at room temperature in PBS containing 5×10^7 platelets, 10 mM MgCl2, 0.06% BSA, 10 nM [^3H]SQ29548, and the test compound at various concentrations. After 1 hour of binding reactions, the platelets were harvested on GF/B filter plates (as previously described from PerkinElmer Inc.) and washed 5 times with PBS using a Filtermate™ Harvester (as previously described from PerkinElmer Inc.). The radioactivities bound to the platelets were determined using a microplate scintillation counter (TopCount® NXT, from PerkinElmer Inc.) after adding 50 μL of Microscint™ 20 scintillation fluid (from PerkinElmer Inc.) to each well of the filter plates. The radioactivity from non-specific binding was determined by replacing the compound with 10 μM of ramatroban (BAY-u3405, from Cayman Chemical Company) in the reaction mixtures. The radioactivity bound to the platelets in the absence of compound (total binding) was determined by replacing the compound with 0.25% of DMSO in the reaction mixture. Specific binding data were obtained by subtracting the radioactivity of non-specific binding from each binding data.
(§1) The IC50 value is defined as the concentration of the tested compound that is required for 50% inhibition of total specific binding. In order to calculate the IC50 value, the percent inhibition data were determined for 7 concentrations for each compound. The percent inhibition for a compound at each concentration was calculated according to the following formula, [1−(specific binding in the presence of compound)/(total specific binding)]×100. The IC50 value was then obtained by fitting the percent inhibition data to a sigmoidal dose-response (4 parameter logistic) model in the XLfit® software Excel add-in program [from ID Business Solutions Ltd., model 205, where F(x)=(A+(B−A)/(1+((C/x)̂D)))].

[2] = molecular target: T2, human CRTH2 (Homo sapiens, UniProt Q9Y5Y4); assay: Human CRTH2 Receptor Binding Assay (whole cell, [3H]ramatroban competition); set-up: expressed in transfected cells; host or cells: CHO-K1 (co-transfected with G-alpha16); conditions: CHO-K1 cells expressing human CRTH2 and G-alpha16; 20 nM [3H]ramatroban; 1 hour, room temperature
T2 sequence (Q9Y5Y4 1-395): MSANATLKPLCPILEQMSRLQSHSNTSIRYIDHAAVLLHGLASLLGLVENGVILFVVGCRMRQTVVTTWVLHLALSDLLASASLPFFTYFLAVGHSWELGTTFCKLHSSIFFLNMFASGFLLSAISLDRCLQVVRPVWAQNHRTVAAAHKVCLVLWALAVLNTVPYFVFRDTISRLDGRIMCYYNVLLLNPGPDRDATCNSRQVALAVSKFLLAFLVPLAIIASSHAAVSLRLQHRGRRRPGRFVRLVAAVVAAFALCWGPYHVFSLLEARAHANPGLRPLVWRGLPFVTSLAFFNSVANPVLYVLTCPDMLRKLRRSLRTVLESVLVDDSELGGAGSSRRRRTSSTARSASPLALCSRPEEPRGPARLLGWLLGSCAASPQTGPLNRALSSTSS
Excerpt: A whole cell receptor binding assay using [^3H]ramatroban as the competing radioactive ligand was employed to evaluate the compound binding activity to human CRTH2. The radioactive ligand [^3H]ramatroban was synthesized according to Sugimoto et. al. (Eur. J. Pharmacol. 524, 30-37, 2005) to a specific activity of 42 Ci/mmol.
A cell line stably expressing human CRTH2 was established by transfecting CHO-K1 cells with two mammalian expression vectors that harbored human CRTH2 and G-alpha16 cDNAs, respectively, using FuGene® 6 transfection reagent (from Roche). Stable clones expressing CRTH2 were selected by staining each clone with BM16 (BD Pharmingen™ from BD Biosciences, a division of Becton, Dickinson and Company), which is a rat monoclonal antibody to human CRTH2. The cells were maintained as monolayer cultures in Ham's F-12 medium containing 10% fetal bovine serum, 100 units/mL penicillin, 100 μg/mL streptomycin, 2 mM glutamine, 0.5 mg/mL G418 (geneticin) for CRTH2, and 0.2 mg/mL hygromycin-B (for G-alpha 16). For whole cell receptor binding assay, the monolayer cells were rinsed once with PBS (phosphate buffered saline), dissociated using ethylenediaminetetraacetate (Versene™ EDTA from Lonza Inc.), and suspended in PBS containing 10 mM MgCl2 and 0.06% BSA (bovine serum albumin) at 1.5×10^6 cells/mL.
The binding reactions (0.2 mL) were performed in 96-well plates at room temperature in PBS containing 1.5×10^5 cells, 10 mM MgCl2, 0.06% BSA, 20 nM [^3H]ramatroban, and test compound at various concentrations. After 1 hour of binding reactions, the cells were harvested on GF™/B filter microplates (microtiter plates with embedded glass fiber from PerkinElmer, Inc.) and washed 5 times with PBS using a Filtermate™ Harvester (a cell harvester that harvests and washes cells from microplates from PerkinElmer, Inc.). The radioactivities bound to the cells were determined using a microplate scintillation counter (TopCount® NXT, from PerkinElmer, Inc.) after adding 50 μL of Microscint™ 20 scintillation fluid (from PerkinElmer, Inc.) to each well of the filter plates. The radioactivity from non-specific binding was determined by replacing compound with 10 μM of 15(R)-15-methyl PGD2 (from Cayman Chemical Company) in the reaction mixtures. The radioactivity bound to the cells in the absence of compound (total binding) was determined by replacing compound with 0.25% of DMSO (dimethyl sulfoxide) in the reaction mixture. Specific binding data were obtained by subtracting the radioactivity of non-specific binding from each binding data.
as §1

CC(C)N(C)c1cc(C(F)(F)F)cc(S(=O)(=O)N(C)[C@@H]2CCCc3c(OCC(=O)O)cccc32)c1 [Example 4-3, ((R)-5-{[3-(isopropyl-methyl-amino)-5-trifluoromethyl-benzenesulfonyl]-methyl-amino}-5,6,7,8-tetrahydro-naphthalen-1-yloxy)-acetic acid]
pIC50 [1]: < 5.00 | pIC50 [2]: 6.39

Cc1cc(C)cc(S(=O)(=O)N[C@@H]2CCCc3c(OCC(=O)O)cccc32)c1 [Example 10-4, [(R)-5-(3,5-dimethyl-benzenesulfonylamino)-5,6,7,8-tetrahydro-naphthalen-1-yloxy]-acetic acid]
pIC50 [1]: 5.09 | pIC50 [2]: 6.51

COc1cc(C(F)(F)F)cc(S(=O)(=O)N[C@@H]2CCCc3c(OCC(=O)O)cccc32)c1 [Example 10-10, [(R)-5-(3-methoxy-5-trifluoromethyl-benzenesulfonylamino)-5,6,7,8-tetrahydro-naphthalen-1-yloxy]-acetic acid]
pIC50 [1]: < 5.00 | pIC50 [2]: 7.74

O=C(O)COc1cccc2c1CCC[C@H]2NS(=O)(=O)c1cc(Br)cc(C(F)(F)F)c1 [Example 10-11, [(R)-5-(3-bromo-5-trifluoromethyl-benzenesulfonylamino)-5,6,7,8-tetrahydro-naphthalen-1-yloxy]-acetic acid]
pIC50 [1]: < 5.00 | pIC50 [2]: 8.05

CN([C@@H]1CCCc2c(OCC(=O)O)cccc21)S(=O)(=O)c1cc(N2CCCC2)cc(C(F)(F)F)c1 [Example 4-1, {(R)-5-[methyl-(3-pyrrolidin-1-yl-5-trifluoromethyl-benzenesulfonyl)-amino]-5,6,7,8-tetrahydro-naphthalen-1-yloxy}-acetic acid]
pIC50 [1]: < 5.00 | pIC50 [2]: 6.90

CC(C)c1cc(C(F)(F)F)cc(S(=O)(=O)N[C@@H]2CCCc3c(OCC(=O)O)cccc32)c1 [Example 10-6, [(R)-5-(3-isopropyl-5-trifluoromethyl-benzenesulfonylamino)-5,6,7,8-tetrahydro-naphthalen-1-yloxy]-acetic acid]
pIC50 [1]: < 5.00 | pIC50 [2]: 7.87

CN([C@@H]1CCCc2c(OCC(=O)O)cccc21)S(=O)(=O)c1cc(C(F)(F)F)cc(C(F)(F)F)c1 [Example 1-6, {(R)-5-[(3,5-bis-trifluoromethyl-benzenesulfonyl)-methyl-amino]-5,6,7,8-tetrahydro-naphthalen-1-yloxy}-acetic acid]
pIC50 [1]: < 5.00 | pIC50 [2]: 7.74

O=C(O)COc1cccc2c1CCC[C@H]2NS(=O)(=O)c1cc(C(F)(F)F)cc(C(F)(F)F)c1 [Example 10-3, [(R)-5-(3,5-bis-trifluoromethyl-benzenesulfonylamino)-5,6,7,8-tetrahydro-naphthalen-1-yloxy]-acetic acid]
pIC50 [1]: < 5.00 | pIC50 [2]: 8.20

CN([C@@H]1CCCc2c(OCC(=O)O)cccc21)S(=O)(=O)c1cc(C(C)(F)F)cc(C(F)(F)F)c1 [Example 5-1, ((R)-5-{[3-(1,1-difluoro-ethyl)-5-trifluoromethyl-benzenesulfonyl]-methyl-amino}-5,6,7,8-tetrahydro-naphthalen-1-yloxy)-acetic acid]
pIC50 [1]: < 5.00 | pIC50 [2]: 7.78

CC(C)S(=O)(=O)c1cc(C(F)(F)F)cc(S(=O)(=O)N(C)[C@@H]2CCCc3c(OCC(=O)O)cccc32)c1 [Example 3-2, ((R)-5-{methyl-[3-(propane-2-sulfonyl)-5-trifluoromethyl-benzenesulfonyl]-amino}-5,6,7,8-tetrahydro-naphthalen-1-yloxy)-acetic acid]
pIC50 [1]: < 5.00 | pIC50 [2]: 8.44

CC(C)[S+]([O-])c1cc(C(F)(F)F)cc(S(=O)(=O)N(C)[C@@H]2CCCc3c(OCC(=O)O)cccc32)c1 (stereo partly drawn) [Example 2-1, ((R)-5-{methyl-[3-(propane-2-sulfinyl)-5-trifluoromethyl-benzenesulfonyl]-amino}-5,6,7,8-tetrahydro-naphthalen-1-yloxy)-acetic acid]
pIC50 [1]: < 5.00 | pIC50 [2]: 8.17

CN([C@@H]1CCCc2c(OCC(=O)O)cccc21)S(=O)(=O)c1cc(S(C)(=O)=O)cc(S(C)(=O)=O)c1 [Example 1-3, {(R)-5-[(3,5-bis-methanesulfonyl-benzenesulfonyl)-methyl-amino]-5,6,7,8-tetrahydro-naphthalen-1-yloxy}-acetic acid]
pIC50 [1]: < 5.00 | pIC50 [2]: 7.80

CC(C)Oc1cc(C(F)(F)F)cc(S(=O)(=O)N(C)[C@@H]2CCCc3c(OCC(=O)O)cccc32)c1 [Example 9-1, {(R)-5-[(3-isopropoxy-5-trifluoromethyl-benzenesulfonyl)-methyl-amino]-5,6,7,8-tetrahydro-naphthalen-1-yloxy}-acetic acid]
pIC50 [1]: < 5.00 | pIC50 [2]: 6.83

CC(C)(C)c1cc(C(C)(C)C)cc(S(=O)(=O)N[C@@H]2CCCc3c(OCC(=O)O)cccc32)c1 [Example 10-8, [(R)-5-(3,5-di-tert-butyl-benzenesulfonylamino)-5,6,7,8-tetrahydro-naphthalen-1-yloxy]-acetic acid]
pIC50 [1]: < 5.00 | pIC50 [2]: 7.51

CN([C@@H]1CCCc2c(OCC(=O)O)cccc21)S(=O)(=O)c1cc(C(F)(F)F)cc(S(=O)(=O)C(C)(C)C)c1 [Example 3-3, ((R)-5-{methyl-[3-(2-methyl-propane-2-sulfonyl)-5-trifluoromethyl-benzenesulfonyl]-amino}-5,6,7,8-tetrahydro-naphthalen-1-yloxy)-acetic acid]
pIC50 [1]: < 5.00 | pIC50 [2]: 8.47
